# Measurements published in patent EP1724268A1, “COMPOUND HAVING TGF-BETA INHIBITORY ACTIVITY AND PHARMACEUTICAL COMPOSITION CONTAINING SAME” (KIRIN BEER KABUSHIKI KAISHA, priority 2004, dated 2005).
# Where two headings read alike, the source gives them in different places.
# Columns and labels:
# TGFβ signal = TGFβ signal inhibitory activity, (SBE)4-Luc reporter in A549 cells (Test Examples 1A and 1B); format: cell-based, human; details: Homo sapiens, A549, read-out: TGFβ inhibition rate, %
# Method in brief: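 Compounds at 3 µM and 10 µM (some 1 µM) were added with 2 ng/ml TGFβ-1 to A549 cells stably expressing an SBE-driven luciferase, then cultured 4 hr. Chemiluminescent luciferase signal gave % inhibition versus TGFβ-alone and no-TGFβ controls.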
# A549 cells = experiment: Cell growth inhibitory activity using A549 cells (Test Example 6); format: cell-based, Human; details: for inhibition at 30 µM: Homo sapiens, A549, compound 30 µM, 5% serum, 40 hr, counting kit-8, read-out: Cell growth inhibition rate (%); for inhibitory activity against cell growth or BMP4 signals: as compared with Example 261 or Example 269 described in WO 03/00660
# Procedure: Human lung cancer epithelial cells (A549) (available from ATCC) were suspended to a concentration of 3 × 10^4/ml in a DMEM/F12 medium containing 10%FCS, and the suspension was inoculated in 100 µl portions in wells of a 96-well plate. On the following day, a stock solution of the test compound which had been adjusted to 10 mM with DMSO was adjusted with a serum-free DMEM/F12 medium to a dose (60 µM) which was twice the evaluation concentration. After removing the medium inoculated in the 96 wells on the previous day, the solution was added in 50 µl portions to the plate. Next, a DMEM/F12 medium containing 10% serum was added in 50 µl portions to the wells, followed by culturing at 37°C for 40 hr. The final concentration of the serum and the concentration of the evaluation compound were 5% and 30 µM, respectively. The compounds according to the present invention synthesized in the working example were used as the test compound. […]
# After 40 hr, the culture was removed, and 100 µl of a solution prepared by diluting counting kit-8 (purchased from Dojindo) with a serum-free F12 medium by 10 times was added, followed by culturing at 37°C for 20 to 30 min. After the confirmation of suitable color development, the absorbance at 450 nm was measured with ARVO (purchased from Wallach Bethold Japan). The cell growth inhibition in the test compound added wells were determined by presuming the absorbance value in the test compound-free wells to be 0% and the absorbance value in the cell-free wells to be 100%.
# [1] = test compound 3 µM, TGFβ-1 2 ng/ml, 4 hr, Table 1A
# [2] = test compound 10 µM, TGFβ-1 2 ng/ml, 4 hr, Table 1A
# [3] = 3 µM, compounds of Reference Examples (Test Example 1B)
# [4] = 10 µM, compounds of Reference Examples (Test Example 1B)
Compound,inhibition at 3 µM (TGFβ signal; [3]) [%],inhibition at 10 µM (TGFβ signal; [4]) [%],further results
"CCc1ccc(Oc2ccnc3cc(C(N)=O)c(OC)cc23)c(-c2ccccn2)n1 [Compound 179, 4-(6-Ethyl-[2,2']bipyridinyl-3-yloxy)-6-methoxy-quinoline-7-carboxylic acid amide]",–,–,inhibition at 3 µM (TGFβ signal; [1]): 100%; inhibition at 10 µM (TGFβ signal; [2]): 100%; inhibition at 30 µM (A549 cells): -3%; inhibitory activity against cell growth or BMP4 signals (A549 cells): reduced inhibitory activity
"CCc1ccc(Oc2ccnc3ccc(OC(C)=O)cc23)c(-c2ccccn2)n1 [Compound 186, 4-(6-Ethyl-[2,2']bipyridinyl-3-yloxy)-quinolin-6-ylacetate]",–,–,inhibition at 3 µM (TGFβ signal; [1]): 100%; inhibition at 10 µM (TGFβ signal; [2]): 100%; inhibition at 30 µM (A549 cells): -2%
"Cc1ccc(Oc2ccnc3ccc(OCCO)cc23)c(-c2ccccn2)n1 [Compound 205, 2-[4-(6-Methyl-[2,2']bipyridyl-3-yloxy)-quinolin-6-yloxy]-ethanol]",–,–,inhibition at 3 µM (TGFβ signal; [1]): 98%; inhibition at 30 µM (A549 cells): 9%; inhibitory activity against cell growth or BMP4 signals (A549 cells): reduced inhibitory activity
COc1cc2nccc(Oc3ccc(C)nc3-c3ccccn3)c2cc1OC [r261],100,100,–
COc1cc2nccc(Oc3ccc(SC)nc3-c3cccnc3)c2cc1OC [r267],34,83,–
COc1cc2nccc(Oc3cc(C)c(C)nc3-c3ccccc3)c2cc1OC [r268],100,100,–
COc1cc2nccc(Oc3cc(C)c(C)nc3-c3ncccn3)c2cc1OC [r274],97,–,–
COc1cc2nccc(Oc3cnc4ccccc4c3)c2cc1OC [r275],45,90,–
COc1cc2nccc(Oc3cc4ccccc4nc3C)c2cc1OC [r276],89,100,–
COc1cc2nccc(Oc3cc4ccccc4nc3C(=O)c3ccccc3)c2cc1OC [r279],98,100,–
COc1cc2nccc(Oc3cc4ccccc4nc3OC3CCCC3)c2cc1OC [r280],45,88,–
COc1cc2nccc(Oc3cc4ccccc4nc3I)c2cc1OC [r282],96,100,–
COc1cc2nccc(Oc3cc4ccccc4nc3-c3ccc(F)cc3)c2cc1OC [r285],65,100,–
COc1cc2nccc(Oc3cc4ccccc4nc3-c3ccc(F)cc3F)c2cc1OC [r286],93,100,–
COc1cc2nccc(Oc3cc4ccccc4nc3-c3ccccn3)c2cc1OC [r287],100,100,–
COc1cc2nccc(Oc3cc4ccccc4nc3-c3ccncc3)c2cc1OC [r289],80,99,–
COc1cc2nccc(Oc3cc4ccccc4nc3-c3cc(C)c(Cl)s3)c2cc1OC [r290],18,57,–
COc1cc2nccc(Oc3c(C)nc4ccccc4c3Br)c2cc1OC [r291],14,78,–
COc1cc2nccc(Oc3cc4cc(F)ccc4nc3-c3ccccc3)c2cc1OC [r292],86,100,–
COc1cc2nccc(Oc3ccc4[nH]ccc4c3)c2cc1OC [r293],65,95,–
COc1cc2nccc(Oc3ccc4ncsc4c3I)c2cc1OC [r294],53,77,–
COc1cc2nccc(Oc3cc4cccnc4cc3C)c2cc1OC [r296],86,100,–
COc1cc2nccc(Oc3ccc4ncccc4c3Cl)c2cc1OC [r298],30,75,–
COc1cc2nccc(Oc3c(C)cc4ncccc4c3Cl)c2cc1OC [r302],30,90,–

Compound,inhibition at 3 µM (TGFβ signal; [3]) [%],inhibition at 10 µM (TGFβ signal; [4]) [%],further results
COc1cc2nccc(Oc3cc4ccncc4cc3-c3cccnc3)c2cc1OC [r304],26,64,–
COc1cc2nccc(Oc3ccc4oc(=O)cc(C)c4c3)c2cc1OC [r306],20,53,–
COc1cc2nccc(Oc3cc4cnccc4nc3C)c2cc1OC [r311],53,90,–
COc1ccc(Oc2ccnc3cc(O)c(OC)cc23)c(C(C)=O)c1 [r312],50,76,–
COc1cc2c(Oc3cc4cnccc4nc3C)ccnc2cc1OCC(CO)CO [r409],41,88,–
COc1cc2c(Oc3cc4ccccc4nc3C)ccnc2cc1-c1ccncc1 [r414],82,100,–
COc1cc2nccc(Oc3cc4ccccc4nc3C)c2cc1OCC(O)CO (stereo not drawn) [r417],98,100,–
COc1cc2nccc(Nc3cnc4ccccc4c3)c2cc1OC [r418],46,73,–
COc1cc2nccc(Sc3ccc4ccccc4n3)c2cc1OC [r420],2,62,–
COc1cc2nccc(Oc3cc4cccnc4nc3-c3ccccn3)c2cc1OC [r421],94,100,–
CCc1nc2ccncc2cc1Oc1ccnc2cc(OC)c(OC)cc12 [r424],28,79,–
COc1cc2nccc(Oc3cc4ccccc4cc3O)c2cc1OC [r425],72,100,–
COc1cc2nccc(Oc3cc4cccnc4nc3C(C)(C)C)c2cc1OC [r426],100,–,–
COc1cc2nccc(Oc3cc4cccnc4nc3-c3ccc(C)cc3)c2cc1OC [r428],67,–,–
COc1cc2nccc(Oc3cc(C)c(C)nc3-c3ncccc3C)c2cc1OC [r429],52,94,–
Cc1ccc(-c2nc(C)c(C)cc2Oc2ccnc3cc(C(F)(F)F)ccc23)nc1 [r433],91,100,–
COc1cc2nccc(Oc3ccc(C)nc3-c3cn[nH]c3)c2cc1OC [r434],100,100,–
COc1cc2nccc(Oc3cc(C)c(C)nc3-c3cnccc3C)c2cc1OC [r435],29,79,–
COc1cc2ncnc(Oc3cc4cccnc4nc3-c3ccccc3)c2cc1OC [r436],99,100,–
COc1cc2ncnc(Oc3cc(C)c(C)nc3-c3ccc(C)cn3)c2cc1OC [r437],95,100,–
COc1cc2nccc(Oc3ccc(C)nc3-c3cnn(C)c3)c2cc1OC [r438],99,100,–
COc1cc2nccc(Oc3cc4ccccc4nc3CCC(C)C)c2cc1OC [r439],43,95,–
COc1cc2c(Oc3cc4cccnc4nc3C)ccnc2cc1OCCN1CCCCC1 [r440],100,100,–
COc1cc2c(Oc3cc(C)c(C)nc3-c3ccc(C)cn3)ccnc2cc1OCCNCCO [r469],100,–,–
